This passage reports IC50 and inhibition results from patent publication US9000023B2, “Disubstituted phthalazine hedgehog pathway antagonists” (Eli Lilly and Company, priority 2009, dated 2015).

Where a name gives a salt, the structure may show the parent alone.

The subject of data set [1] is Gli1 in Daoy cells. The data set can be described thus: Functional assay for measuring the inhibition of Gli1 in Daoy cells (bDNA assay). Type of data set: cell-based. The conditions noted are these: Homo sapiens; Daoy cells stimulated with Shh conditioned media, 24 hours with compound, Gli1 transcript by bDNA luminescence. The protocol:
All ligands, solvents, and reagents employed in the following assay are readily available from commercial sources or can be readily prepared by one skilled in the art. Biological activity is determined using a functional assay in Daoy neuronal cancer cells and measures levels of Gli1 ribonucleic acid via a bDNA (branched deoxyribonucleic acid) assay system (Panomics, Inc., Fremont, Calif.). Gli was originally discovered in a Glioblastoma cell line and encodes a zinc finger protein that is activated by Shh signaling. The maximum response is obtained by inducing Gli1 transcription in the Daoy cells with conditioned medium (human embryonic kidney, HEK-293 cells stably expressing recombinant Shh) for 24 hours and then measuring the amount of stimulated Gli1 transcript. […] The bDNA assay system utilizes the technology of branched-chain DNA to allow amplification of a target ribonucleic acid (transcript). […] The addition of a chemilumigenic substrate during the amplification step allows for detection using luminescence. […] The cells are removed from the T225-flasks using trypsin ethylenediaminetetraacetic acid (EDTA), centrifuged, resuspended in media, and then counted. […] The signal is quantified by reading the plates on a Perkin Elmer Envision reader detecting luminescence. […]

The target in data set [2] is CYP3A4 (Homo sapiens, UniProt P08684). The data set can be described thus: CYP3A4 Inhibition Assay (human liver microsomes, midazolam substrate). The settings on record: pH 7.4, probe midazolam (5 μM; formation of 1-OH-midazolam).
Chain of CYP3A4 (P08684 whole entry): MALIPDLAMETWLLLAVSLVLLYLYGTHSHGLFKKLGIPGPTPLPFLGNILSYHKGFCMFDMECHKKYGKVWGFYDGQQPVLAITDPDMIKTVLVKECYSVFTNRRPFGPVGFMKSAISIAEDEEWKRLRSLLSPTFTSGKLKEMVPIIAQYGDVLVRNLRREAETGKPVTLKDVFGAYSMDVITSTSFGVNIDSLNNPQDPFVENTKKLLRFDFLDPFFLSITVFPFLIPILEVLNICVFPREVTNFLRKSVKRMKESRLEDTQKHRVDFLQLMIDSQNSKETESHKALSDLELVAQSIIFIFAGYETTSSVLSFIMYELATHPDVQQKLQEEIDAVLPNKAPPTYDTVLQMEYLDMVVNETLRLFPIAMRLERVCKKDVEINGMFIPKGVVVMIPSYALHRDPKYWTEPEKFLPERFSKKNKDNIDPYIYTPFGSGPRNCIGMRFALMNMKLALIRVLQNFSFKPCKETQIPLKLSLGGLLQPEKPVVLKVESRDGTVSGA

Regarding `CN(C(=O)c1ccc(F)cc1C(F)(F)F)C1CCN(c2nnc(-c3ccnn3C)c3ccccc23)CC1` [Example 1a, 4-Fluoro-N-methyl-N-(1-(4-(1-methyl-1H-pyrazol-5-yl)phthalazin-1-yl)piperidin-4-yl)-2-(trifluoromethyl)benzamide hydrochloride], the IC50 in data set [1] is around 2.4 nM. Also, the inhibition at 3 min, 10 μM in data set [2] was found to be 13.5%.
